According to patent US20110092476A1, “Bicycloheteroaryl compounds as P2X7 modulators and uses thereof” (Renovis, Inc., priority 2006, published 2011):
Converted amounts (≈) assume the structure as drawn. Read-outs that look alike come from different tables or passages of the source.

Legend:
[1] = Pharmacokinetic evaluation following intravenous and oral administration in rats (oral bioavailability); format: in vivo, rat; settings: male Sprague-Dawley rats, PO 1 to 5 mg/kg vs IV 1 mg/kg, AUCinf dose-normalized
Description: Male Sprague-Dawley rats are acclimatized for at least 24 hours prior to experiment initiation. During acclimation period, all animals receive food and water ad libitum. However, food but not water is removed from the animal's cages at least 12 hours before initiation of the experiment. During the first 3 hours of experimentation, the animals receive only water ad libitum. At least three animals each are tested for intravenous and oral dosage. For intravenous formulation, compounds were dissolved (0.25 to 1 mg/mL) in a mixture of 3% dimethyl sulfoxide, 40% PEG 400 and the rest percentage of 40% Captisol in water (w/v). The animals are weighed before dosing. The determined body weight is used to calculate the dose volume for each animal.
Dose volume (mL/kg)=1 mg/kg/formulation concentration (mg/mL)
In instances where the formulation concentrations were less than 0.5 mg/mL, the dosing volume is about 2 mL/kg.
PO rats are typically dosed through oral gavage following the same dose volume formula as IV to achieve a dose level of 1 to 5 mg/kg. […] About 250 uL of blood is obtained at each time point from the animal. Equal volumes of 0.9% normal saline are replaced to prevent dehydration. The whole blood samples are maintained on ice until centrifugation. Blood samples are then centrifuged at 14,000 rpm for 10 minutes at 4° C. and the upper plasma layer transferred into a clean vial and stored at −80° C. The resulting plasma samples are then analyzed by liquid chromatography-tandem mass spectrometry. Following the measurement of plasma samples and dosing solutions, plasma concentration-time curve is plotted. Plasma exposure is calculated as the area under the concentration-time curve extrapolated to time infinite (AUinf). The AUCinf is averaged and the oral bioavailability (% F) for individual animal is calculated as:
AUCinf (PO)/AUCinf (IV), normalized to their respective dose levels. The % F is reported as the mean % F of all animals dosed orally with the compound of the invention at the specified level (see Table 4 below).
For the purpose of Table 4, oral bioavailability of each compound is expressed as follows: […]

P2X7 receptor = target: T1, P2X7 receptor (Homo sapiens, UniProt Q99572); assay: IL-1β release assay in differentiated THP-1 cells stimulated with BzATP (Example 9); format: cell-based; settings: BzATP 250 uM; for inhibition at 0.3 µM: differentiated THP-1 cells, read-out: IL-1β % Inhib. @ 0.3 or 0.1 uM; for IC50: THP-1 cells, IL-1β by ELISA
T1 construct: host or cells: THP-1 cells differentiated with LPS and IFN-γ
T1 sequence (Q99572 1-595): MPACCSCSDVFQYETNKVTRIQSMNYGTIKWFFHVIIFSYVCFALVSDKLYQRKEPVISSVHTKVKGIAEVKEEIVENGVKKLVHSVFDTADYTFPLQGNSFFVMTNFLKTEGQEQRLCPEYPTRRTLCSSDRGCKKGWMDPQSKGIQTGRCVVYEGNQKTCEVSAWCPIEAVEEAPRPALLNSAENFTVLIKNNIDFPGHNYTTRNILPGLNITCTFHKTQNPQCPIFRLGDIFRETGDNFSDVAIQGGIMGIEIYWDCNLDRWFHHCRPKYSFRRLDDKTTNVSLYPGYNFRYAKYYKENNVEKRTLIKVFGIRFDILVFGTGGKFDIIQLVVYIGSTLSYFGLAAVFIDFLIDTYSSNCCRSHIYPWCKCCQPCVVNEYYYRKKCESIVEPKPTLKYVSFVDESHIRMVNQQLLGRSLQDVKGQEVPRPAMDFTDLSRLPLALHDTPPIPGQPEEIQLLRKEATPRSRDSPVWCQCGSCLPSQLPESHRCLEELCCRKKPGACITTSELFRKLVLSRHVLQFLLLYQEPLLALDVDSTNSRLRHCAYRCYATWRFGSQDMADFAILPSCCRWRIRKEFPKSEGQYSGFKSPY
In short: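 THP-1 cells differentiated 16 h with 100 ng/mL LPS and 100 ng/mL IFN-γ, primed 2 h with fresh LPS, pretreated 30 min with compound, then stimulated 45 min with 250 uM BzATP (final). Supernatant IL-1β measured by ELISA; background-adjusted percent inhibition fitted to a four-parameter logistic for IC50.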

[2] = Half-life in human liver microsomes (HLM); settings: pH 7.4
Description: Test compounds (1 μM) are incubated with 3.3 mM MgCl2 and 0.78 mg/mL HLM (HL101) in 100 mM potassium phosphate buffer (pH 7.4) at 37° C. on the 96-deep well plate. The reaction mixture is split into two groups, a non-P450 and a P450 group. NADPH is only added to the reaction mixture of the P450 group. An aliquot of samples of P450 group is collected at 0, 10, 30, and 60 min time point, where 0 min time point indicated the time when NADPH is added into the reaction mixture of P450 group. […] Collected aliquots are extracted with acetonitrile solution containing an internal standard. […] The compound concentration in supernatant is measured by LC/MS/MS system.
The half-life value is obtained by plotting the natural logarithm of the peak area ratio of compounds/internal standard versus time. The slope of the line of best fit through the points yields the rate of metabolism (k). This is converted to a half-life value using following equations:

[3] = Determination of aqueous (kinetic) solubility; format: physicochemical; settings: aqueous buffer, kinetic from dmso stock, buffer pH 7.4
Description: The mixture was vortexed for 1 hour and equilibrated overnight at room temperature. The mixture was filtered through a saturated filter and the filtrate was analyzed by LC/MS/MS.
For the purpose of Table 5, solubility of each compound is expressed as follows: […]

SMILES | Oral Bioavailability F (%) [1] | inhibition at 0.3 µM (P2X7 receptor; 0.3 μM compound, "+" symbols) [%] | half-life at 1 μM [2] [h] | IC50 (P2X7 receptor) [nM] | solubility [3] [µM] | inhibition at 0.3 µM (P2X7 receptor; 0.3 μM compound (symbols +)) [%] | inhibition at 0.3 µM (P2X7 receptor; "+" symbols = compound at 0.3 μM) [%]
C[C@H](C(N)=O)n1ccc2c(NC(=O)Cc3ccc(Cl)c(C(F)(F)F)c3)cccc2c1=O [Compound 238, (R)-2-{5-[2-(4-Chloro-3-trifluoromethyl-phenyl)-acetylamino]-1-oxo-1H-isoquinolin-2-yl}-propionamide] | + (0-25% F) | > 76 | 1.59 | – | – | – | –
C[C@H](CO)n1ccc2c(NC(=O)Cc3ccc(C(F)(F)F)cc3)cccc2c1=O [Compound 319] | +++ (51-75% F) | > 76 | 1.22 | – | – | – | –
Cc1ccc2c(=O)n([C@H](C)CO)ccc2c1NC(=O)Cc1cccc(C(F)(F)F)c1F [Compound 395] | – | > 76 | – | 9.44 | > 75 | – | –
C[C@H](C(N)=O)n1ccc2c(NC(=O)Cc3cccc(C(F)(F)F)c3F)cccc2c1=O [Compound 285] | ++ (26-50% F) | > 76 | 1.24 | – | – | – | –
C[C@H](CO)n1ccc2c(NC(=O)[C@H](C)c3ccc(Cl)c(Cl)c3)cccc2c1=O [Compound 320] | – | > 76 | – | – | 51 to 75 (≈ 21.4 to 31.4 µg/mL) | – | –
CC(C(=O)Nc1cccc2c(=O)n([C@H](C)C(N)=O)ccc12)c1ccc(Cl)cc1 (stereo partly drawn) [Compound 247] | ++ (26-50% F) | > 76 | 2.11 | – | – | – | –
O=C(Cc1ccc(Cl)cc1)Nc1cccc2c(=O)n(CCO)ccc12 [Compound 4] | ++++ (>75% F) | – | 1.97 | – | – | 26 to 50 | –
C[C@H](CO)n1ccc2c(NC(=O)Cc3ccc(C(F)(F)F)cc3)c(Cl)ccc2c1=O [Compound 364] | ++++ (>75% F) | > 76 | 3.15 | – | – | – | –
C[C@H](C(N)=O)n1ccc2c(NC(=O)Cc3ccc(F)c(Cl)c3)cccc2c1=O [Compound 301] | – | > 76 | – | – | 26 to 50 (≈ 10.4 to 20.1 µg/mL) | – | –
NC(=O)[C@H](CO)n1ccc2c(NC(=O)Cc3ccc(Cl)c(C(F)(F)F)c3)cccc2c1=O [Compound 250, (S)-2-{5-[2-(4-Chloro-3-trifluoromethyl-phenyl)-acetylamino]-1-oxo-1H-isoquinolin-2-yl}-3-hydroxy-propionamide] | – | > 76 | 0.9 | – | > 75 | – | –
C[C@H](CO)n1ccc2c(NC(=O)Cc3ccc(Cl)c(Cl)c3)cccc2c1=O [Compound 333, 2-(3,4-Dichloro-phenyl)-N-[2-((R)-2-hydroxy-1-methyl-ethyl)-1-oxo-1,2-dihydro-isoquinolin-5-yl]-acetamide] | – | > 76 | – | – | > 75 | – | –
CC(C)(CO)n1ccc2c(NC(=O)Cc3ccc(Cl)c(C(F)(F)F)c3)cccc2c1=O [Compound 369, 2-(4-Chloro-3-trifluoromethyl-phenyl)-N-[2-(2-hydroxy-1,1-dimethyl-ethyl)-1-oxo-1,2-dihydro-isoquinolin-5-yl]-acetamide] | + (0-25% F) | > 76 | 0.55 | – | – | – | –
C[C@@H](C(N)=O)n1ccc2c(NC(=O)Cc3ccc(Cl)c(Cl)c3)cccc2c1=O [Compound 236, (S)-2-{5-[2-(3,4-Dichloro-phenyl)-acetylamino]-1-oxo-1H-isoquinolin-2-yl}-propionamide] | + (0-25% F) | > 76 | 0.97 | – | – | – | –
C[C@H](C(N)=O)n1ccc2c(NC(=O)Cc3ccc(C(F)(F)F)c(F)c3)cccc2c1=O [Compound 306] | – | > 76 | – | – | < 25 | – | –
O=C(Cc1ccc(Cl)c(Cl)c1)Nc1cccc2c(=O)n(CCO)ccc12 [Compound 8] | + (0-25% F) | – | 1.41 | – | – | > 76 | –
C[C@H](C(N)=O)n1ccc2c(NC(=O)[C@H](C)c3ccc(Cl)cc3)cccc2c1=O [Compound 262] | – | > 76 | – | – | > 75 | – | –
C[C@@H](C(=O)Nc1cccc2c(=O)n([C@@H](C)C(N)=O)ccc12)c1ccc(Cl)cc1 [Compound 266] | – | > 76 | – | – | > 75 | – | –
C[C@H](CO)n1ccc2c(NC(=O)Cc3ccc(Cl)c(C(F)(F)F)c3)cccc2c1=O [Compound 362] | ++ (26-50% F) | > 76 | 0.97 | – | – | – | –
C[C@H](C(N)=O)n1ccc2c(NC(=O)Cc3ccc(Cl)c(F)c3)cccc2c1=O [Compound 300] | – | > 76 | – | – | < 25 | – | –
Cc1ccc2c(=O)n([C@H](C)CO)ccc2c1NC(=O)Cc1ccc(Cl)c(F)c1 [Compound 398] | – | – | – | 5.38 | > 75 | – | > 76
O=C(Cc1ccc(Cl)c(C(F)(F)F)c1)Nc1cccc2c(=O)n(C[C@@H]3CCCN3)ccc12 [Compound 232, 2-(4-Chloro-3-trifluoromethyl-phenyl)-N-(1-oxo-2-(S)-1-pyrrolidin-2-ylmethyl-1,2-dihydro-isoquinolin-5-yl)-acetamide] | – | > 76 | 7.37 | – | – | – | –
O=C(Cc1ccc(Cl)c(Cl)c1)Nc1cccc2c(=O)n(C(CO)CO)ccc12 [Compound 80] | – | – | – | – | > 75 | > 76 | –
C[C@@H](C(N)=O)n1ccc2c(NC(=O)Cc3ccc(Cl)cc3C(F)(F)F)cccc2c1=O [Compound 237, (S)-2-{5-[2-(4-Chloro-2-trifluoromethyl-phenyl)-acetylamino]-1-oxo-1H-isoquinolin-2-yl}-propionamide] | – | > 76 | – | – | 26 to 50 (≈ 11.7 to 22.6 µg/mL) | – | –
C[C@H](C(N)=O)n1ccc2c(NC(=O)Cc3cccc(C(F)(F)F)c3F)c(Cl)ccc2c1=O [Compound 342] | + (0-25% F) | > 76 | 1.16 | – | – | – | –
O=C(Cc1ccc(C(F)(F)F)cc1)Nc1cccc2c(=O)n(CCO)ccc12 [Compound 7] | – | – | – | – | < 25 | 26 to 50 | –
C[C@H](CO)n1ccc2c(NC(=O)Cc3ccc(C(F)(F)F)cc3C(F)(F)F)cccc2c1=O [Compound 361] | – | > 76 | – | – | > 75 | – | –
